The record followed here is the supplement of paper PMC10627819.

Structures are written as SMILES.

What all share (test): Bliss interaction score (quartile over a dose matrix) (fitness difference); higher = more antagonism (negative = synergy)
The test system of assay [1] is B. subtilis 168. Conditions: main component drawn. The method in brief:
(§1)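 Fitness was OD595 at entry into stationary phase divided by the plate's robust no-drug mean and capped at 1; single-drug fitness was inferred from combination data. The Bliss score is observed minus expected (product) fitness, summarised by quartiles over technical, biological and donor/recipient replicates.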

Assay [2] has as its system S. aureus DSM 20231. The method in brief:
as §1

Assay [3] deals with S. pneumoniae D39V. Conditions: main component drawn. The method in brief: as §1
Assay [4] relates to S. aureus Newman. The conditions noted are these: main component drawn. The method in brief: as §1
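Note: first quartile when negative (synergy) and third quartile when positive (antagonism).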

In the case of `CC[C@H](C)[C@H](N)C1=N[C@H](C(=O)N[C@@H](CC(C)C)C(=O)N[C@H](CCC(=O)O)C(=O)N[C@H](C(=O)N[C@H]2CCCCNC(=O)[C@H](CC(N)=O)NC(=O)[C@@H](CC(=O)O)NC(=O)[C@H](Cc3cnc[nH]3)NC(=O)[C@@H](Cc3ccccc3)NC(=O)[C@H]([C@@H](C)CC)NC(=O)[C@@H](CCCN)NC2=O)[C@@H](C)CC)CS1` [Bacitracin] + C1=CC(=CC(=C1)Cl)NN=C(C#N)C#N [CCCP], the Bliss interaction score is 0.0608 in assay [1], -0.0168 in assay [2] (main component drawn), 0.0638 in assay [3] and 0.194 in assay [4].

Take `CC[C@H](C)[C@H](N)C1=N[C@H](C(=O)N[C@@H](CC(C)C)C(=O)N[C@H](CCC(=O)O)C(=O)N[C@H](C(=O)N[C@H]2CCCCNC(=O)[C@H](CC(N)=O)NC(=O)[C@@H](CC(=O)O)NC(=O)[C@H](Cc3cnc[nH]3)NC(=O)[C@@H](Cc3ccccc3)NC(=O)[C@H]([C@@H](C)CC)NC(=O)[C@@H](CCCN)NC2=O)[C@@H](C)CC)CS1` [Bacitracin] + CC1(C)S[C@@H]2[C@H](NC(=O)Cc3ccccc3)C(=O)N2[C@H]1C(=O)O [PenicillinG]: the Bliss interaction score in assay [1] was -0.164; in assay [2] (main component drawn), 0.0263; in assay [3], -0.0799; in assay [4], 0.0689.

In the case of `CC[C@H](C)[C@H](N)C1=N[C@H](C(=O)N[C@@H](CC(C)C)C(=O)N[C@H](CCC(=O)O)C(=O)N[C@H](C(=O)N[C@H]2CCCCNC(=O)[C@H](CC(N)=O)NC(=O)[C@@H](CC(=O)O)NC(=O)[C@H](Cc3cnc[nH]3)NC(=O)[C@@H](Cc3ccccc3)NC(=O)[C@H]([C@@H](C)CC)NC(=O)[C@@H](CCCN)NC2=O)[C@@H](C)CC)CS1` [Bacitracin] + CC(=O)O[C@H]1C[C@@]2(C)[C@@H](C[C@@H](O)[C@H]3[C@@]4(C)CC[C@@H](O)[C@@H](C)[C@@H]4CC[C@@]32C)/C1=C(\CCC=C(C)C)C(=O)O [Fusidic acid], the Bliss interaction score is -0.166 in assay [1], 0.012 in assay [2] (main component drawn), -0.0749 in assay [3] and -0.0273 in assay [4].

`CC[C@H](C)[C@H](N)C1=N[C@H](C(=O)N[C@@H](CC(C)C)C(=O)N[C@H](CCC(=O)O)C(=O)N[C@H](C(=O)N[C@H]2CCCCNC(=O)[C@H](CC(N)=O)NC(=O)[C@@H](CC(=O)O)NC(=O)[C@H](Cc3cnc[nH]3)NC(=O)[C@@H](Cc3ccccc3)NC(=O)[C@H]([C@@H](C)CC)NC(=O)[C@@H](CCCN)NC2=O)[C@@H](C)CC)CS1` [Bacitracin] + CC[C@H]1OC(=O)[C@H](C)C(=O)[C@H](C)[C@@H](O[C@@H]2O[C@H](C)C[C@H](N(C)C)[C@H]2O)[C@](C)(OC)C[C@@H](C)C(=O)[C@H](C)[C@H]2N(CCCCn3cnc(-c4cccnc4)c3)C(=O)O[C@]12C [Telithromycin]: the Bliss interaction score was -0.0381 in assay [1], -0.0302 in assay [2] (main component drawn), 0.0263 in assay [3] and -0.047 in assay [4].

Take `CC[C@H](C)[C@H](N)C1=N[C@H](C(=O)N[C@@H](CC(C)C)C(=O)N[C@H](CCC(=O)O)C(=O)N[C@H](C(=O)N[C@H]2CCCCNC(=O)[C@H](CC(N)=O)NC(=O)[C@@H](CC(=O)O)NC(=O)[C@H](Cc3cnc[nH]3)NC(=O)[C@@H](Cc3ccccc3)NC(=O)[C@H]([C@@H](C)CC)NC(=O)[C@@H](CCCN)NC2=O)[C@@H](C)CC)CS1` [Bacitracin] + CC[C@H]1OC(=O)[C@H](C)[C@@H](O[C@H]2C[C@@](C)(OC)[C@@H](O)[C@H](C)O2)[C@H](C)[C@@H](O[C@@H]2O[C@H](C)C[C@H](N(C)C)[C@H]2O)[C@](C)(O)C[C@@H](C)C(=O)[C@H](C)[C@@H](O)[C@]1(C)O [Erythromycin]: the Bliss interaction score is -0.0517 in assay [1], -0.0209 in assay [2] (main component drawn), 0.0397 in assay [3] and -0.0632 in assay [4].

With `CC[C@H](C)[C@H](N)C1=N[C@H](C(=O)N[C@@H](CC(C)C)C(=O)N[C@H](CCC(=O)O)C(=O)N[C@H](C(=O)N[C@H]2CCCCNC(=O)[C@H](CC(N)=O)NC(=O)[C@@H](CC(=O)O)NC(=O)[C@H](Cc3cnc[nH]3)NC(=O)[C@@H](Cc3ccccc3)NC(=O)[C@H]([C@@H](C)CC)NC(=O)[C@@H](CCCN)NC2=O)[C@@H](C)CC)CS1` [Bacitracin] + CC[C@H]1OC(=O)[C@H](C)[C@@H](O[C@H]2C[C@@](C)(OC)[C@@H](O)[C@H](C)O2)[C@H](C)[C@@H](O[C@@H]2O[C@H](C)C[C@H](N(C)C)[C@H]2O)[C@](C)(OC)C[C@@H](C)C(=O)[C@H](C)[C@@H](O)[C@]1(C)O [Clarithromycin], the Bliss interaction score in assay [1] is 0.0539; in assay [2] (main component drawn) it was -0.0475; in assay [3], -0.0454; in assay [4], -0.0869.

As to `CC[C@H](C)[C@H](N)C1=N[C@H](C(=O)N[C@@H](CC(C)C)C(=O)N[C@H](CCC(=O)O)C(=O)N[C@H](C(=O)N[C@H]2CCCCNC(=O)[C@H](CC(N)=O)NC(=O)[C@@H](CC(=O)O)NC(=O)[C@H](Cc3cnc[nH]3)NC(=O)[C@@H](Cc3ccccc3)NC(=O)[C@H]([C@@H](C)CC)NC(=O)[C@@H](CCCN)NC2=O)[C@@H](C)CC)CS1` [Bacitracin] + CN(C)[C@@H]1C(O)=C(C(N)=O)C(=O)[C@@]2(O)C(O)=C3C(=O)c4c(O)ccc(Cl)c4[C@@](C)(O)[C@H]3C[C@@H]12 [Clortetracycline], the Bliss interaction score in assay [1] was -0.12; in assay [2] (main component drawn), 0.0294; in assay [3], 0.135; in assay [4], -0.0827.

Turning to `CC[C@H](C)[C@H](N)C1=N[C@H](C(=O)N[C@@H](CC(C)C)C(=O)N[C@H](CCC(=O)O)C(=O)N[C@H](C(=O)N[C@H]2CCCCNC(=O)[C@H](CC(N)=O)NC(=O)[C@@H](CC(=O)O)NC(=O)[C@H](Cc3cnc[nH]3)NC(=O)[C@@H](Cc3ccccc3)NC(=O)[C@H]([C@@H](C)CC)NC(=O)[C@@H](CCCN)NC2=O)[C@@H](C)CC)CS1` [Bacitracin] + CN[C@H](CC(C)C)C(=O)N[C@H]1C(=O)N[C@@H](CC(N)=O)C(=O)N[C@H]2C(=O)N[C@H]3C(=O)N[C@H](C(=O)N[C@H](C(=O)O)c4cc(O)cc(O)c4-c4cc3ccc4O)[C@H](O[C@H]3C[C@](C)(N)[C@@H](O)[C@H](C)O3)c3ccc(c(Cl)c3)Oc3cc2cc(c3O[C@@H]2O[C@H](CO)[C@@H](O)[C@H](O)[C@H]2O[C@H]2C[C@](C)(NCc3ccc(-c4ccc(Cl)cc4)cc3)[C@@H](O)[C@H](C)O2)Oc2ccc(cc2Cl)[C@H]1O [Oritavancin], the Bliss interaction score in assay [1] is -0.0398; in assay [2] (main component drawn), -0.0199; in assay [3], 0.0372; in assay [4], 0.084.

Turning to `CC[C@H](C)[C@H](N)C1=N[C@H](C(=O)N[C@@H](CC(C)C)C(=O)N[C@H](CCC(=O)O)C(=O)N[C@H](C(=O)N[C@H]2CCCCNC(=O)[C@H](CC(N)=O)NC(=O)[C@@H](CC(=O)O)NC(=O)[C@H](Cc3cnc[nH]3)NC(=O)[C@@H](Cc3ccccc3)NC(=O)[C@H]([C@@H](C)CC)NC(=O)[C@@H](CCCN)NC2=O)[C@@H](C)CC)CS1` [Bacitracin] + CO[C@@]12[C@H](COC(N)=O)C3=C(C(=O)C(C)=C(N)C3=O)N1C[C@@H]1N[C@@H]12 [MitomycinC], the Bliss interaction score is -0.0673 in assay [1], -0.0743 in assay [2] (main component drawn), -0.0853 in assay [3] and -0.0961 in assay [4].

Consider `CC(C)(O)c1ccccc1CC[C@@H](SCC1(CC(=O)O)CC1)c1cccc(/C=C/c2ccc3ccc(Cl)cc3n2)c1` [Montelukast] + CN[C@@H]1[C@H](O[C@H]2[C@H](O[C@H]3[C@H](O)[C@@H](O)[C@H](N=C(N)N)[C@@H](O)[C@@H]3N=C(N)N)O[C@@H](C)[C@]2(O)C=O)O[C@@H](CO)[C@H](O)[C@H]1O [Streptomycin], for which the Bliss interaction score in assay [2] is -0.394.

For the molecule `CC(C)(O)c1ccccc1CC[C@@H](SCC1(CC(=O)O)CC1)c1cccc(/C=C/c2ccc3ccc(Cl)cc3n2)c1` [Montelukast] + CN[C@H](CC(C)C)C(=O)N[C@H]1C(=O)N[C@@H](CC(N)=O)C(=O)N[C@H]2C(=O)N[C@H]3C(=O)N[C@H](C(=O)N[C@H](C(=O)O)c4cc(O)cc(O)c4-c4cc3ccc4O)[C@H](O[C@H]3C[C@](C)(N)[C@@H](O)[C@H](C)O3)c3ccc(c(Cl)c3)Oc3cc2cc(c3O[C@@H]2O[C@H](CO)[C@@H](O)[C@H](O)[C@H]2O[C@H]2C[C@](C)(NCc3ccc(-c4ccc(Cl)cc4)cc3)[C@@H](O)[C@H](C)O2)Oc2ccc(cc2Cl)[C@H]1O [Oritavancin], the Bliss interaction score in assay [2] turned out to be 0.247.

With `CC(C)(O)c1ccccc1CC[C@@H](SCC1(CC(=O)O)CC1)c1cccc(/C=C/c2ccc3ccc(Cl)cc3n2)c1` [Montelukast] + COc1cc(Cc2cnc(N)nc2N)cc(OC)c1OC [Trimethoprim], the Bliss interaction score in assay [2] was -0.299.

Consider `CC(C)(O)c1ccccc1CC[C@@H](SCC1(CC(=O)O)CC1)c1cccc(/C=C/c2ccc3ccc(Cl)cc3n2)c1` [Montelukast] + Cn1nnc(-c2ccc(-c3ccc(N4C[C@H](CO)OC4=O)cc3F)cn2)n1 [Tedizolid], for which the Bliss interaction score in assay [2] is -0.384.

Take `CO[C@@H]1[C@@H](OC(N)=O)[C@@H](O)[C@H](Oc2ccc3c(O)c(NC(=O)c4ccc(O)c(CC=C(C)C)c4)c(=O)oc3c2C)OC1(C)C` [Novobiocin] + CCCSc1nc(N[C@@H]2C[C@H]2c2ccc(F)c(F)c2)c2nnn([C@@H]3C[C@H](OCCO)[C@@H](O)[C@H]3O)c2n1 [Ticagrelor]: the Bliss interaction score in assay [2] turned out to be 0.177.

`CO[C@H]1/C=C/O[C@@]2(C)Oc3c(C)c(O)c4c(O)c(c(/C=N/N5CCN(C)CC5)c(O)c4c3C2=O)NC(=O)/C(C)=C\C=C\[C@H](C)[C@H](O)[C@@H](C)[C@@H](O)[C@@H](C)[C@H](OC(C)=O)[C@@H]1C` [Rifampicin] + CCCSc1nc(N[C@@H]2C[C@H]2c2ccc(F)c(F)c2)c2nnn([C@@H]3C[C@H](OCCO)[C@@H](O)[C@H]3O)c2n1 [Ticagrelor]: the Bliss interaction score in assay [2] stood at 0.245.

Take `CN[C@@H]1[C@H](O)[C@H](NC)[C@H]2O[C@@]3(O)C(=O)C[C@@H](C)O[C@H]3O[C@@H]2[C@H]1O` [Spectinomycin] + Cc1c(Cl)cccc1Nc1ccccc1C(=O)O [Tolfenamic]: the Bliss interaction score in assay [2] is 0.145.

As for `CN[C@@H]1[C@H](O[C@H]2[C@H](O[C@H]3[C@H](O)[C@@H](O)[C@H](N=C(N)N)[C@@H](O)[C@@H]3N=C(N)N)O[C@@H](C)[C@]2(O)C=O)O[C@@H](CO)[C@H](O)[C@H]1O` [Streptomycin] + CC/C(=C(\c1ccccc1)c1ccc(OCCN(C)C)cc1)c1ccccc1 [Tamoxifene], the Bliss interaction score in assay [2] worked out at 0.166.

Regarding `CN[C@@H]1[C@H](O[C@H]2[C@H](O[C@H]3[C@H](O)[C@@H](O)[C@H](N=C(N)N)[C@@H](O)[C@@H]3N=C(N)N)O[C@@H](C)[C@]2(O)C=O)O[C@@H](CO)[C@H](O)[C@H]1O` [Streptomycin] + CCCSc1nc(N[C@@H]2C[C@H]2c2ccc(F)c(F)c2)c2nnn([C@@H]3C[C@H](OCCO)[C@@H](O)[C@H]3O)c2n1 [Ticagrelor], in assay [2], the Bliss interaction score is -0.259.

`CN[C@@H]1[C@H](O[C@H]2[C@H](O[C@H]3[C@H](O)[C@@H](O)[C@H](N=C(N)N)[C@@H](O)[C@@H]3N=C(N)N)O[C@@H](C)[C@]2(O)C=O)O[C@@H](CO)[C@H](O)[C@H]1O` [Streptomycin] + CCCc1nc2c(C)cc(-c3nc4ccccc4n3C)cc2n1Cc1ccc(-c2ccccc2C(=O)O)cc1 [Telmisartan]: in assay [2], the Bliss interaction score was 0.123.

Regarding `CN[C@@H]1[C@H](O[C@H]2[C@H](O[C@H]3[C@H](O)[C@@H](O)[C@H](N=C(N)N)[C@@H](O)[C@@H]3N=C(N)N)O[C@@H](C)[C@]2(O)C=O)O[C@@H](CO)[C@H](O)[C@H]1O` [Streptomycin] + Cc1ccc(C(C)C)c(O)c1 [Thymol], the Bliss interaction score in assay [2] was -0.425.
